# Values quoted from earlier work as cited in patent publication US20100144738A1, “INHIBITORS OF C-MET AND USES THEREOF” (priority 2006, published 2010).
# Counter-ions that a name gives are not always drawn. Like-named read-outs stand apart in the source and are kept apart here.
# Assays:
# [1] = test system: c-Met mutations
# [2] = target: c-Met (Homo sapiens, UniProt P08581); conditions: single dose
# c-Met, sequence (P08581 25-1390): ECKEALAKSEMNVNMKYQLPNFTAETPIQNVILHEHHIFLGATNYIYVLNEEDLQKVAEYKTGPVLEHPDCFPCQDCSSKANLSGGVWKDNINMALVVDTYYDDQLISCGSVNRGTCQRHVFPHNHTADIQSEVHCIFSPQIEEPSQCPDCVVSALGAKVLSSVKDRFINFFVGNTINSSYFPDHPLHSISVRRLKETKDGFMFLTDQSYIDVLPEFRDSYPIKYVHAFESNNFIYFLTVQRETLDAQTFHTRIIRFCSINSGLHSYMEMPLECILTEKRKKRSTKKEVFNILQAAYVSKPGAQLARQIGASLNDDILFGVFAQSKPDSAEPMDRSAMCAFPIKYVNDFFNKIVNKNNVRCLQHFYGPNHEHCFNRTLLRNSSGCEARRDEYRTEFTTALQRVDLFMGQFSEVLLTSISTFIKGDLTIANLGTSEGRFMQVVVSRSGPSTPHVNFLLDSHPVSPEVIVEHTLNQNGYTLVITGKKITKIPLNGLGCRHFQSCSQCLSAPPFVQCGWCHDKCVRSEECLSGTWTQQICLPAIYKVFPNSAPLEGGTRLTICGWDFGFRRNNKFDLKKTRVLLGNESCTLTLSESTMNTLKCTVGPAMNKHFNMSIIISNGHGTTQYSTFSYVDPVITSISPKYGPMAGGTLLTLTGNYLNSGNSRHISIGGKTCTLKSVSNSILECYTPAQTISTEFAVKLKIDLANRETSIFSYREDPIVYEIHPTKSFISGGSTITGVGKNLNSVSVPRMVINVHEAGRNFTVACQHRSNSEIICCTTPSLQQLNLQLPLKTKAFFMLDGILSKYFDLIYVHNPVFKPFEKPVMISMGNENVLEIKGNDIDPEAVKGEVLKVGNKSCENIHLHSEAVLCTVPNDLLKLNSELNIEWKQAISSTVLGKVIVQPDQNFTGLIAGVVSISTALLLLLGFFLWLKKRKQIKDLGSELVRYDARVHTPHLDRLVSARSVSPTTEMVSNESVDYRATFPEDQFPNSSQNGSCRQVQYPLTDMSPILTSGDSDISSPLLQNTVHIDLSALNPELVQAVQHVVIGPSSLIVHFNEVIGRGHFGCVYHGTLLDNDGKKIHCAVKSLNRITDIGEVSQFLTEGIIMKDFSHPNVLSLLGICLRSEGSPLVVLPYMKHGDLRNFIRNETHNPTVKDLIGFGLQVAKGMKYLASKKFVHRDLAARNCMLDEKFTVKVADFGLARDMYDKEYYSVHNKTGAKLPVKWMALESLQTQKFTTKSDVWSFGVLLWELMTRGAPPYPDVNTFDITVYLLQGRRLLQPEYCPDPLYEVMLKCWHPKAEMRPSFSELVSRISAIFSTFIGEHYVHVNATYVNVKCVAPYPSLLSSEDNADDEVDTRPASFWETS
Compound,sensitivity of mutations to imatinib ([1]; mutations Asp816Val/Phe/Tyr),"sensitivity of mutations to imatinib ([1]; mutations Val560Gly, Glu839Lys, Asp820Gly)",duration of inhibition of c-Met phosphorylation in tumor xenografts [2] [h]
"Cc1ccc(NC(=O)c2ccc(CN3CCN(C)CC3)cc2)cc1Nc1nccc(-c2cccnc2)n1 [IMATINIB, imatinib mesylate]",resistant,sensitive,
Cc1[nH]c(/C=C2\C(=O)Nc3ccc(S(=O)(=O)Cc4c(Cl)cccc4Cl)cc32)c(C)c1C(=O)N1CCC[C@@H]1CN1CCCC1 [PHA-665752],,,≤ 12
